Source: patent US9650375B2, “Indole derivatives useful as anti-diabetic agents” (Merck Sharp & Dohme Corp., priority 2013, dated 2017)

Key:
ob/ob and db/db mice = settings: following 8 weeks of administration; cited from earlier work
[1] = target: T1, recombinant human AMPK complex 1 (containing α1β1γ1) (Homo sapiens, UniProt Q13131+Q9Y478); assay: In vitro AMPK activation assay (AMPKSAMSF), AMPK complex 1; format: biochemical; settings: for Emax: 10-point titration data expressed as % maximum AMP activation; for EC50: human AMPK complex 1, inflection point reflecting 50% of the maximum activation
T1 construct: made in house; host or cells: Spodoptera frugiperda Sf21 cells (baculovirus, triple infection)
Experimental: (§1) AMPKSAMSF (In Vitro AMPK Activation Assay)
(§2) The recombinant human AMPK complex 1 (containing α1β1γ1) and complex 7 (containing α2β1γ1) were obtained from baculovirus expression system. Recombinant viruses were generated by cotransfection of AMPK/pBacPak9 clones with Baculogold baculovirus DNA (Pharmingen) in spodoptera frugiperda 21 cells according to the manufacturer's instructions. Each round of virus amplification was performed for 5 days in Grace's medium containing 10% serum. Virus that had been subjected to three rounds of amplification was used for all protein production procedures. To express the AMPK complex, sf21 cells were adapted to serum free medium (SF900 II, Invitrogen) by sequential dilution from serum containing stocks into SF900II medium and maintained in shaker flasks at 90 rpm at 27° C. The recombinant AMPK enzyme complex was produced by triple infection, one recombinant virus for each of the subunits, in sf21 cells under serum free conditions. Cells were infected in log phase, 1×10^6 cells/ml, at a multiplicity of infection of ˜5. Cells were harvested by centrifugation at 10,000×g for 15 minutes after 72 hours of infection with viruses. The insect cell pellet from 2 liters of culture was resuspended in 50 ml lysis buffer (20 mM Tris-HCl, 50 mM NaCl, 50 mM NaF, 30 mM Na PPi, 0.25 M sucrose, 10 mM ZnCl2, 2 mM DTT, 0.4 mg/ml digitonin) and subjected to two cycles of freeze-thaw lysis in a dry-ice ethanol bath. Insoluble material was removed by centrifugation at 10,000×g and the supernatant was fractionated with use of polyethylene glycol (PEG). The protein fraction precipitating between 2.5 and 6% PEG was used for further purification using a Blue-Sepharose step (Zhou et al, J. Clin. Invest. 108, 1167-1174, 2001).
(§3) The in vitro AMPK activation assay is performed in a volume of 30 μl in a 384-well plate. Enzyme reactions were assembled in the microtiter plate by adding 15 μl of 2× enzyme in assay buffer (20 mM HEPES, pH 7.3, 5 mM MgCl2, 3 mM DTT, 0.01% Brij 35 and CamK Kinase, to activate AMPK) to wells which contained either DMSO or compound. The reaction was initiated with the addition of 15 μ12× substrate mixture containing 200 μM ATP, and 3.0 μM fluorescently labeled SAMS (5-FAM-HMRSAMSGLHLVKRR—COOH) in assay buffer. After 45-minute incubation at 25° C., the reaction was stopped by the addition of 70 μl stop buffer (100 mM HEPES, pH 7.3, 40 mM EDTA, 0.015% Brij 35). Phosphorylated 5-FAM SAMS product is assessed using a Caliper EZ Reader LabChip microfluidics reader. Product conversion is determined by calculating the peak heights of the substrate and product and reporting the product/(product+substrate) peak ratio. The 10-point titration data were expressed as % maximum AMP activation. The results were plotted using 4 parameter fit and the inflection point reflecting 50% of the maximum activation was reported as the EC50.
(§4) The compounds of present invention, including the compounds of Examples 1-142, were tested in the in vitro AMPK activation assay using recombinant human AMPK complex 1 (containing α1β1γ1) or AMPK complex 7 (containing α2β1γ1) and found to have increased activation of human AMPK complex 1 or complex 7 at concentrations of less than 50 μM.

[2] = target: T2, recombinant human AMPK complex 7 (containing α2β1γ1) (Homo sapiens, UniProt P54646+Q9Y478); assay: In vitro AMPK activation assay (AMPKSAMSF), AMPK complex 7; format: biochemical; settings: for Emax: 10-point titration data expressed as % maximum AMP activation; for EC50: human AMPK complex 7, inflection point reflecting 50% of the maximum activation
T2 construct: made in house; host or cells: Spodoptera frugiperda Sf21 cells (baculovirus, triple infection)
Experimental: as §1, §2, §3, §4

T2 sequence (P54646 whole entry): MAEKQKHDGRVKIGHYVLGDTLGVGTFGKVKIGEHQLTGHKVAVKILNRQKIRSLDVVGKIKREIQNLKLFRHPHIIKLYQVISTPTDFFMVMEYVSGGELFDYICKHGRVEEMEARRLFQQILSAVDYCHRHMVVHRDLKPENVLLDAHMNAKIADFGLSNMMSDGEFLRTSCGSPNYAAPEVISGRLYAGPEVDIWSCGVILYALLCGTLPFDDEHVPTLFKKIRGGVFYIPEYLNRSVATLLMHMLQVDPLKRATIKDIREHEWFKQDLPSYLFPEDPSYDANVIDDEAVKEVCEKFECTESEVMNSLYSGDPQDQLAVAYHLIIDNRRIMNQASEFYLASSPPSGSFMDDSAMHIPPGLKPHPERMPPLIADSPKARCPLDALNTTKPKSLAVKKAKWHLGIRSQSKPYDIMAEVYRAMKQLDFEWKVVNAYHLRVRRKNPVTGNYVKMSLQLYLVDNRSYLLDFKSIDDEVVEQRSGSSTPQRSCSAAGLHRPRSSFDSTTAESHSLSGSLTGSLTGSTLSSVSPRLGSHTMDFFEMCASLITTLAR
T2 sequence (Q9Y478 whole entry): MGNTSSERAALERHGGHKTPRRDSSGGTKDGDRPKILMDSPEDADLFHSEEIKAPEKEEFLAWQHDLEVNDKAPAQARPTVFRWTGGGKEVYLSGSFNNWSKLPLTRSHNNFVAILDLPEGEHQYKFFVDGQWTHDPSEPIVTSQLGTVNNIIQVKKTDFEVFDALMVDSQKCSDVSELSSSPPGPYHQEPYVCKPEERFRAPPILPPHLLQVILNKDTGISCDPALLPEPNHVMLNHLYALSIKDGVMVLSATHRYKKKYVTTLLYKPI
T2 sequence (P54619 whole entry partner): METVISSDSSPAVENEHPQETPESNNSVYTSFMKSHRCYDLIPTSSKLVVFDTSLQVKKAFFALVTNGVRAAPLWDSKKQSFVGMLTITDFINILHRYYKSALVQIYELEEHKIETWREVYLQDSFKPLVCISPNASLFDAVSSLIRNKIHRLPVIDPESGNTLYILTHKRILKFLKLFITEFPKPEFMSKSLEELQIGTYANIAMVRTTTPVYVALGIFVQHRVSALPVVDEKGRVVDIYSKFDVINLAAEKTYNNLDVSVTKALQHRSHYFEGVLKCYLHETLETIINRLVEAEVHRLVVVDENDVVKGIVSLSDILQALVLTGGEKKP
T1 sequence (Q13131 whole entry): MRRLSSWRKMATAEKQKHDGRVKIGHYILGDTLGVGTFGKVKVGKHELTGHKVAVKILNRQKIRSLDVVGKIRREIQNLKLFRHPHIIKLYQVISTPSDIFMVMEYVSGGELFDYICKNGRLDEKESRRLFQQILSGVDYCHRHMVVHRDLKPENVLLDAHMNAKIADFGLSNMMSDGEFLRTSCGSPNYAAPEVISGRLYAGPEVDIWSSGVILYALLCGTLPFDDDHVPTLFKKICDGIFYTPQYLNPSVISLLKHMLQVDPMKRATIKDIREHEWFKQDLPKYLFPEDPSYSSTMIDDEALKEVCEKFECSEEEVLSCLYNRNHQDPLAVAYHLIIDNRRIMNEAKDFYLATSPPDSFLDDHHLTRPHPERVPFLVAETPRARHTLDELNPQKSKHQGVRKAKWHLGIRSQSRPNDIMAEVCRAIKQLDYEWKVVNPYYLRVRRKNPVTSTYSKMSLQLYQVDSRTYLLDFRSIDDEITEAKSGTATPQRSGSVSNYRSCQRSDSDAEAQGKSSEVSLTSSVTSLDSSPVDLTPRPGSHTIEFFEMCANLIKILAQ
T1 sequence (Q9Y478 whole entry): as the sequence (Q9Y478 whole entry) above
T1 sequence (P54619 whole entry partner): as the sequence (P54619 whole entry partner) above

Row | Emax [2] [%] | EC50 [2] [nM] | Compound | blood glucose reduction (ob/ob and db/db mice) [%] | Emax [1] [%] | EC50 [1] [nM]
1 |  |  | NC(=O)c1ncn([C@@H]2O[C@H](CO)[C@@H](O)[C@H]2O)c1N [AICAR] | 35 |  | 
2 |  |  | Cc1ccc(Cc2cc3cc(-c4ccc(N5CCCC5)cc4)c(Cl)cc3[nH]2)cc1C(=O)O [Example 1, 5-((6-chloro-5-(4-(pyrrolidin-1-yl)phenyl)-1H-indol-2-yl)methyl)-2-methylbenzoic acid] |  | 581 | 37
3 |  |  | Cc1ccc(Cc2cc3cc(-c4ccc(-c5ccc(S(C)(=O)=O)cc5)cc4)c(Cl)cc3[nH]2)cc1C(=O)O [Example 3] |  | 680 | 13
4 |  |  | Cc1ccc(Cc2cc3cc(-c4ccc(C5(CO)CC5)cc4)c(Cl)cc3[nH]2)cc1C(=O)O [Example 6, 5-((6-chloro-5-(4-(1-(hydroxymethyl)cyclopropyl)phenyl)-1H-indol-2-yl)methyl)-2-methylbenzoic acid] |  | 601 | 10
5 |  |  | CCOc1ccc(-c2cc3cc(Cc4ccc(C)c(C(=O)O)c4)[nH]c3cc2Cl)c(F)c1 [Example 8, 5-((6-chloro-5-(4-ethoxy-2-fluorophenyl)-1H-indol-2-yl)methyl)-2-methylbenzoic acid] |  | 265 | 493
6 |  |  | CS(=O)(=O)c1ccc(-c2ccc(-c3cc4cc(CCCC(=O)O)[nH]c4cc3Cl)cc2)cc1 [Example 15] |  | 370 | 24
7 |  |  | Cc1ccc(Cc2cc3nc(-c4ccc(C5(CO)CC5)cc4)c(Cl)cc3[nH]2)cc1C(=O)O [Example 18, 5-((6-chloro-5-(4-(1-(hydroxymethyl)cyclopropyl)phenyl)-1H-pyrrolo[3,2-b]pyridin-2-yl)methyl)-2-methylbenzoic acid] |  | 573 | 4
8 |  |  | CS(=O)(=O)c1ccc(-c2ccc(-c3nc4cc(CCCCO)[nH]c4cc3Cl)cc2)cc1 [Example 21] |  | 590 | 2
9 |  |  | CS(=O)(=O)c1ccc(-c2ccc(-c3nc4cc(CCCC(=O)O)[nH]c4cc3Cl)cc2)cc1 [Example 22] |  | 416 | 8
10 |  |  | CS(=O)(=O)c1ccc(-c2ccc(-c3nc4cc(CCCCC(=O)O)[nH]c4cc3Cl)cc2)cc1 [Example 23] |  | 575 | 1
11 |  |  | CS(=O)(=O)c1ccc(-c2ccc(-c3nc4cc(C[C@H]5CC[C@H](CO)CC5)[nH]c4cc3Cl)cc2)cc1 [Example 24, ((trans)-4-((6-chloro-5-(4′-(methylsulfonyl)-[1,1′-biphenyl]-4-yl)-1H-pyrrolo[3,2-b]pyridin-2-yl)methyl)cyclohexyl)methanol] |  | 256 | 14
12 |  |  | Cc1ccc(Cc2cc3cc(-c4ccc(-c5ccncc5)cc4)c(Cl)cc3[nH]2)cc1C(=O)O [Example 30, 5-{[6-chloro-5-(4-pyridin-4-ylphenyl)-1H-indol-2-yl]methyl}-2-methylbenzoic acid] |  | 583 | 15
13 | 354 | 5 | O[C@@H]1CO[C@H]2[C@@H]1OC[C@H]2Oc1cc2nc(-c3ccc(-c4ccccc4)cc3)c(Cl)cc2[nH]1 [Example 69] |  |  | 
14 | 530 | < 3 | OCC1(c2ccc(-c3nc4cc(O[C@@H]5CO[C@H]6[C@@H]5OC[C@H]6O)[nH]c4cc3F)cc2)CC1 [Example 72] |  |  | 
15 | 446 | < 3 | O[C@@H]1CO[C@H]2[C@@H]1OC[C@H]2Oc1cc2nc(-c3ccc4c(c3)OCO4)c(Cl)cc2[nH]1 [Example 76] |  |  | 
16 | 472 | < 3 | Cn1ccc2cc(-c3nc4cc(O[C@@H]5CO[C@H]6[C@@H]5OC[C@H]6O)[nH]c4cc3Cl)ccc21 [Example 77] |  |  | 
17 | 230 | < 3 | Cc1ccc(Oc2cc3nc(-c4ccc(-c5ccccc5)cc4)c(Cl)cc3[nH]2)cc1C(=O)O [Example 80] |  |  | 
18 | 239 | 6 | Cc1ccc(Oc2cc3nc(-c4ccc(-c5ccccc5)cc4)c(F)cc3[nH]2)cc1C(=O)O [Example 82] |  |  | 
19 | 495 | 8 | O=S1(=O)CCN(c2ccc(-c3nc4cc(O[C@@H]5CO[C@H]6[C@@H]5OC[C@H]6O)[nH]c4cc3Cl)cc2)CC1 [Example 105] |  |  | 
20 | 492 | < 1 | Oc1ccccc1-c1ccc(-c2nc3cc(O[C@@H]4CO[C@H]5[C@@H]4OC[C@H]5O)[nH]c3cc2Cl)cc1 [Example 107, (3R,3aR,6R,6aR)-6-((6-chloro-5-(2′-hydroxy-[1,1′-biphenyl]-4-yl)-1H-pyrrolo[3,2-b]pyridin-2-yl)oxy)hexahydrofuro[3,2-b]furan-3-ol] |  |  | 
21 | 412 | < 1 | O[C@@H]1CO[C@H]2[C@@H]1OC[C@H]2Oc1cc2nc(-c3ccc(-c4ccc(-n5cncn5)cc4)cc3)c(Cl)cc2[nH]1 [Example 110] |  |  | 
22 | 333 | < 3 | Cc1ccc(Oc2cc3nc(-c4ccc(C5(CO)CC5)cc4)c(Cl)cc3[nH]2)cc1P(=O)(O)O [Example 114, (5-((6-chloro-5-(4-(1-(hydroxymethyl)cyclopropyl)phenyl)-1H-pyrrolo[3,2-b]pyridin-2-yl)oxy)-2-methylphenyl)phosphonic acid] |  |  | 
23 | 213 | 71 | OC[C@H]1OC[C@H](Oc2cc3nc(-c4ccc(-c5ccccc5)cc4)c(Cl)cc3[nH]2)C[C@@H]1O [Example 121, (2R,3S,5R)-5-((5-([1,1′-biphenyl]-4-yl)-6-chloro-1H-pyrrolo[3,2-b]pyridin-2-yl)oxy)-2-(hydroxymethyl)tetrahydro-2H-pyran-3-ol] |  |  | 
24 | 384 | 4 | OC[C@H]1OC[C@H](Oc2cc3nc(-c4ccc(C5(CO)CC5)cc4)c(Cl)cc3[nH]2)C[C@@H]1O [Example 122] |  |  | 
25 | 295 | 12 | OC[C@H]1OC[C@@H](Oc2cc3nc(-c4ccc(-c5ccccc5)cc4)c(Cl)cc3[nH]2)[C@@H]1O [Example 123] |  |  | 
26 | 305 | 15 | OC[C@H]1OC[C@@H](Oc2cc3nc(-c4ccc(C5(CO)CC5)cc4)c(Cl)cc3[nH]2)[C@@H]1O [Example 124] |  |  | 
27 | 486 | 56 | Cc1c(O[C@@H]2CC[C@H]3[C@@H]2OC[C@H]3O)[nH]c2cc(Cl)c(-c3ccc(-c4ccccc4)cc3)nc12 [Example 138] |  |  | 
